Data as given in patent US20120214173A1, “Methods of Identifying Modulators of an Ehd Polypeptide” (priority 2007, published 2012).
Residue numbers refer to the chain shown, from its start. “Also recorded” adds a separate entry of the source.

Legend:
EHD2 = target: T1, EHD2 (Mus musculus, UniProt Q8BH64); assay: ITC nucleotide binding to EHD2; settings: ITC at 10° C.
T1 construct: Mouse EHD2 full-length protein and all mutants were expressed as N-terminal His-fusions followed by a PreScission cleavage site; His (N, cleaved yes); made in house; host or cells: Escherichia coli BL21 DE3 Rosetta
T1 sequence (Q8BH64 1-543): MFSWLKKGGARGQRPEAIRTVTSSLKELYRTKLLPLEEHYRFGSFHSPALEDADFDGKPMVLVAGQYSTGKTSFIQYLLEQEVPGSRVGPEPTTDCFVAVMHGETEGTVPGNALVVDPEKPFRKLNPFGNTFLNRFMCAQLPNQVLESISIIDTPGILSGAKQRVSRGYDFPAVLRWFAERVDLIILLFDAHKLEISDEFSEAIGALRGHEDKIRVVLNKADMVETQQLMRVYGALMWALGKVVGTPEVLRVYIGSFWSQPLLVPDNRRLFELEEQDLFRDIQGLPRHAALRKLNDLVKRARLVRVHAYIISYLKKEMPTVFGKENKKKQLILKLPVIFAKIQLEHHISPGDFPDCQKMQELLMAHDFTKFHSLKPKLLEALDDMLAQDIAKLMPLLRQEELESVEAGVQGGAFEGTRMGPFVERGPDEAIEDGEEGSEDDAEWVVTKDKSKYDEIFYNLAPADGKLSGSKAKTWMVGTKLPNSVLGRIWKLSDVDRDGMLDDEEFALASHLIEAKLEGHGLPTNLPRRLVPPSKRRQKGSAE
Experimental: (§1) Amino acid numbering corresponds to mouse EHD2. b, EHD2 binds to adenine nucleotides, as determined by ITC. For clarity, ΔΔH=ΔHn−ΔH1 is plotted. […] Images were acquired close to the basal cell surface. f, Nucleotide hydrolysis was measured by HPLC in the absence (empty symbols) or presence of Folch liposomes (filled symbols). Data represent mean and standard deviation for two (intrinisic reactions) or three (stimulated reactions) independent experiments.
(§2) ITC measurements were performed at 10° C. in 20 mM HEPES (pH 7.5), 300 mM NaCl, 2 mM MgCl2. Liposome binding assays were performed as described previously (www.endocytosis.org). Multiple turnover ATPase assays were performed in 20 mM HEPES (pH 7.5), 135 mM NaCl, 15 mM KCl, 1 mM MgCl2 at 30° C. with 10 μM EHD2 (or mutants) as enzyme and 100 μM ATP as substrate, in the absence or presence of 1 mg/ml Folch liposomes (Sigma-Aldrich).
Mouse full-length EHD2 was expressed in bacteria and purified to homogeneity (FIG. 5). The purified protein was nucleotide-free as judged by HPLC analysis. […] It was previously reported that EHDs—despite having a predicted G-domain—bind to adenine nucleotides^15. […] We still refer to this domain as a G-domain because the sequence and fold (see below) are clearly similar to other G-domains. […] Using synthetic liposomes containing various different phosphatidyl-inositols (PI) (FIG. 1c) we observed best binding to liposomes containing PI(4,5)bisphosphate (PIP2).

EHD2(T72A) = target: T2, EHD2(T72A) (Mus musculus, UniProt Q8BH64, T72A); assay: ITC nucleotide binding to EHD2(T72A) P-loop mutant; settings: ITC at 10° C.
T2 construct: Mouse EHD2 full-length protein and all mutants were expressed as N-terminal His-fusions followed by a PreScission cleavage site; His (N, cleaved yes); made in house; host or cells: Escherichia coli BL21 DE3 Rosetta
T2 sequence (Q8BH64 1-543 T72A): T1 sequence (Q8BH64 1-543) with T72A
Experimental: as §1, §2
Mouse full-length EHD2 was expressed in bacteria and purified to homogeneity (FIG. 5). The purified protein was nucleotide-free as judged by HPLC analysis. […] It was previously reported that EHDs—despite having a predicted G-domain—bind to adenine nucleotides^15. […] We still refer to this domain as a G-domain because the sequence and fold (see below) are clearly similar to other G-domains. […]

T94A mutant of EHD2 = target: T3, T94A mutant of EHD2 (Mus musculus, UniProt Q8BH64, T94A); assay: ITC nucleotide binding to EHD2 T94A mutant; settings: ITC as in FIG. 1b
T3 construct: Mouse EHD2 full-length protein and all mutants were expressed as N-terminal His-fusions followed by a PreScission cleavage site; His (N, cleaved yes); made in house; host or cells: Escherichia coli BL21 DE3 Rosetta
T3 sequence (Q8BH64 1-543 T94A): T1 sequence (Q8BH64 1-543) with T94A
Experimental: Nucleotide hydrolysis was measured as described in FIG. 1f. In vitro tubulation activity of PS liposomes was analysed as described in FIG. 1d. f, EGFP-tagged mutants were over-expressed in HeLa cells. […] For each construct, three independent experiments with ≈50 cells/experiments were analysed.
as §2
In small GTPases, the role of positioning the water molecule is assigned to a catalytic glutamine from switch II^26. We studied the role of ATP hydrolysis to gain insights into the function of EHD2 in vivo. […] To confirm the role of ATP hydrolysis in EHD function we re-introduced a catalytic glutamine in the active site, at the position normally found for small GTPases (I157Q). […] Many of these puncta were highly mobile as determined by live-cell microscopy.

Nc1ncnc2c1ncn2[C@@H]1O[C@H](COP(=O)(O)OP(=O)(O)OP(O)(O)=S)[C@@H](O)[C@H]1O [ATP-γ-S]
n (fitted ITC value), nucleotide binding to EHD2 (EHD2): 0.96 | Kd (EHD2; 20 mM HEPES (pH 7.5), 300 mM NaCl, 2 mM MgCl2, read-out: affinity to EHD2 determined by ITC): 13 ± 3 µM | binding to EHD2(T72A) by ITC (EHD2(T72A)): no binding observed; also recorded: prevented binding | affinity of the T94A mutant to ATP-γ-S by ITC (T94A mutant of EHD2): nearly wild-type affinity
